Patent US8436030B2, “Polymorphic forms of deferasirox (ICL670A)” (Navartis AG, priority 2006, dated 2013)

Experiment: Solubility of solid forms (comparative statement)
Type: physicochemical
Conditions: as compared to the crystalline form A or B

solubility: highest solubility
SMILES: O=C(O)c1ccc(-n2nc(-c3ccccc3O)nc2-c2ccccc2O)cc1 [amorphous form, 4-[3,5-bis(2-hydroxyphenyl)-[1,2,4]triazol-1-yl]benzoic acid]
